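Where inhibition never reached the appropriate level, the endpoint shown equals the highest concentration tested. Otherwise, values were interpolated linearly from a five-concentration, 48-hour dose response in 96-well plates. TGI: concentration producing complete growth inhibition.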
Experiments:
Assay in all cases: inhibition of tumour cell growth, NCI panel, 48 h
HCC-2998 colon = system: HCC-2998 colon
LOX IMVI melanoma = system: LOX IMVI melanoma
SK-OV-3 ovarian = system: SK-OV-3 ovarian
OVCAR-5 ovarian = system: OVCAR-5 ovarian
NCI-H460 lung = system: NCI-H460 lung
SNB-19 CNS = system: SNB-19 CNS
UACC-62 melanoma = system: UACC-62 melanoma
NCI-H23 lung = system: NCI-H23 lung
SF-539 CNS = system: SF-539 CNS
KM20L2 colon = system: KM20L2 colon
CAKI-1 renal = system: CAKI-1 renal
NCI-H522 lung = system: NCI-H522 lung
786-0 renal = system: 786-0 renal
RXF-631 renal = system: RXF-631 renal
ACHN renal = system: ACHN renal
SR leukemia = system: SR leukemia
DMS 273 small cell lung = system: DMS 273 small cell lung
SF-295 CNS = system: SF-295 CNS
RPMI-8226 leukemia = system: RPMI-8226 leukemia
OVCAR-3 ovarian = system: OVCAR-3 ovarian
MALME-3M melanoma = system: MALME-3M melanoma
HCT-15 colon = system: HCT-15 colon
SF-268 CNS = system: SF-268 CNS
A549 NSCLC = system: A549 NSCLC
K-562 leukemia = system: K-562 leukemia
MOLT-4 leukemia = system: MOLT-4 leukemia
HOP-18 NSCLC = system: HOP-18 NSCLC
SW-620 colon = system: SW-620 colon
COLO 205 colon = system: COLO 205 colon
U251 CNS = system: U251 CNS
SK-MEL-2 melanoma = system: SK-MEL-2 melanoma
SK-MEL-28 melanoma = system: SK-MEL-28 melanoma
M19-MEL melanoma = system: M19-MEL melanoma
OVCAR-8 ovarian = system: OVCAR-8 ovarian
NCI-H226 lung = system: NCI-H226 lung
HOP-92 NSCLC = system: HOP-92 NSCLC
EKVX NSCLC = system: EKVX NSCLC
DLD-1 colon = system: DLD-1 colon
RXF 393 renal = system: RXF 393 renal
UACC-257 melanoma = system: UACC-257 melanoma
LXFL 529 NSCLC = system: LXFL 529 NSCLC
IGROV1 ovarian = system: IGROV1 ovarian
HL-60(TB) leukemia = system: HL-60(TB) leukemia
HT29 colon = system: HT29 colon
CCRF-CEM leukemia = system: CCRF-CEM leukemia
SK-MEL-5 melanoma = system: SK-MEL-5 melanoma
KM12 colon = system: KM12 colon
HCT-116 colon = system: HCT-116 colon
HOP-62 NSCLC = system: HOP-62 NSCLC
SN12C renal = system: SN12C renal
TK-10 renal = system: TK-10 renal
DMS 114 small cell lung = system: DMS 114 small cell lung
SNB-75 CNS = system: SNB-75 CNS
OVCAR-4 ovarian = system: OVCAR-4 ovarian
XF 498 CNS = system: XF 498 CNS
UO-31 renal = system: UO-31 renal
SNB-78 CNS = system: SNB-78 CNS
M14 melanoma = system: M14 melanoma
A498 renal = system: A498 renal

Measured: TGI

COC(=O)c1ccc(Cc2ccc(C(=O)OC)o2)o1
not listed: DMS 114 small cell lung | SNB-75 CNS | OVCAR-4 ovarian | XF 498 CNS | UO-31 renal | SNB-78 CNS | M14 melanoma | A498 renal
> 378 µM: all other assays above

COC(OC)[C@@H](C)[C@H](O)[C@](C)(O)C1OC(C)(C)OC(C(C)C=C(C)C)C1C (some centres undefined)
not listed: HCC-2998 colon | RXF-631 renal
> 100 µM: all other assays above

O=C(O)C12CCCC(CCC1)C2
not listed: HCC-2998 colon | KM20L2 colon | 786-0 renal | SR leukemia | HOP-18 NSCLC | M19-MEL melanoma | NCI-H226 lung
> 100 µM: all other assays above

COCCOCC(=O)N(CCn1ccc(NC(c2ccccc2)(c2ccccc2)c2ccccc2)nc1=O)CCn1cnc2nc(N)[nH]c(=O)c21
not listed: SK-OV-3 ovarian | SNB-19 CNS | NCI-H522 lung | M19-MEL melanoma | XF 498 CNS
> 100 µM: all other assays above

From PubChem BioAssay (NCI)
